Data taken from patent EP0000322A1, “Compounds having an anti-depressive or tranquilizing activity, pharmaceutical compositions containing them, and processes and intermediates for their preparation” (priority 1977, dated 1979).
Where a name gives a salt, the structure may show the parent alone. Read-outs that look alike come from different tables or passages of the source.

Columns and labels:
[1] = system: neuronal uptake of 5-hydroxytryptamine and noradrenaline; experiment: Overall assessment of the uptake tests (selectivity NA versus 5-HT); design: species or system mouse; conditions: summary of the results of Table I
[2] = system: neuronal uptake of noradrenaline; experiment: Inhibition of the uptake of 3H-NA in brain slices after in vivo (i.p.) administration; design: species or system mice; conditions: for ED50: Mus musculus, ip, 0.5 h; for Inhibition of the uptake in vivo i.p. ED50 NA: 30 min
Protocol: (§1) The test method described in Europ. J. Pharmacol. 17, 107, 1972. This method involves the measurement of the decrease in the uptake of ^14C-5-hydroxytryptamine (^14C-5-HT) and ^3H- -noradrenaline (^3H-NA) in brain slices from mice after in vivo and in vitro administration of the test substance.
(§2) The test substances were administered intraperitoneally half an hour before the animals were killed. The midbrain was taken out, sliced and incubated in a mixture consisting of 0.2 nmole of ^14C-5-HT, 0.2 nmole of ^3H-NA and 11 µmole of glucose in 2 ml of Krebs Henseleit-buffer, pH 7.4 per 100 mg of brain slices. The incubation time was 5 minutes with 5 minutes of preincubation before the labelled amines were added. The slices were dissolved in Soluene and the amounts of radioactive amines taken u^p were determined by liquid scintillation. The doses producing 50 per cent decrease of the active uptake (ED50) of ^14C-5-HT and ^3H-NA were determined graphically from dose response curves. Active uptake is defined as that part of the radioactive uptake which is inhibited by a high concentration of cocaine.

[3] = system: neuronal uptake of 5-hydroxytryptamine; experiment: Inhibition of the uptake of 14C-5-HT in brain slices after in vivo (i.p.) administration; design: species or system mice; conditions: for ED50: Mus musculus, ip, 0.5 h; for Inhibition of the uptake in vivo i.p. ED50 5-HT: 30 min
Protocol: as §1, §2

[4] = target: neuronal uptake of noradrenaline (Mus musculus, UniProt O55192); experiment: Inhibition of the uptake of 3H-NA in mouse midbrain slices, in vitro administration; type: cell-based; conditions: slices from mouse brain (midbrain), 5 min preincubation with compound
Chain of neuronal uptake of noradrenaline (Mus musculus, UniProt O55192) (O55192 whole entry): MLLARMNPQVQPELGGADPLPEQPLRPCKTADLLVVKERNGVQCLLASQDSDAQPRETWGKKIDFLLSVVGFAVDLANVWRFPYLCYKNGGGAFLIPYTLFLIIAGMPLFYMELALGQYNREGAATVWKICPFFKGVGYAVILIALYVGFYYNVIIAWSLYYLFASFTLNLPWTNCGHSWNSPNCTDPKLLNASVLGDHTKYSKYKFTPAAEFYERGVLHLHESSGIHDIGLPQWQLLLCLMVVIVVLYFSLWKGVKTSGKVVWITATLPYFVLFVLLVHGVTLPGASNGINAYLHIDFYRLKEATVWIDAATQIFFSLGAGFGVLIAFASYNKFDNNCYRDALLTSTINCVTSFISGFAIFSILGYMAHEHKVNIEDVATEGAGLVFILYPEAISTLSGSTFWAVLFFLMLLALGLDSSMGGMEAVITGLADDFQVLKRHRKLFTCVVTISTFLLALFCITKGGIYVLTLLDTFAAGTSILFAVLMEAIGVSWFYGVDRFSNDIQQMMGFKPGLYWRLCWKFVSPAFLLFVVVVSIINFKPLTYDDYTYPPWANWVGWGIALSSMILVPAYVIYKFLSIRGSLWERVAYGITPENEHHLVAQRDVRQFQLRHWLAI
Protocol: as §1
as §2, with “Active uptake is defined as that part of the radioactive uptake which is inhibited by a high concentration of cocaine.” left out
(§3) In the vitro administration method slices of mouse midbrain were preincubated for 5 minutes with solution of the compound to be tested and then incubated as described above. The concentration producing 50 per cent inhibition of the active uptake IC50 of ^14C-5-HT and 3-H-NA was determined graphically from dose response curves.

[5] = target: neuronal uptake of 5-hydroxytryptamine (Mus musculus, UniProt Q60857); experiment: Inhibition of the uptake of 14C-5-HT in mouse midbrain slices, in vitro administration; type: cell-based; conditions: slices from mouse brain (midbrain), 5 min preincubation with compound
Chain of neuronal uptake of 5-hydroxytryptamine (Mus musculus, UniProt Q60857) (Q60857 whole entry): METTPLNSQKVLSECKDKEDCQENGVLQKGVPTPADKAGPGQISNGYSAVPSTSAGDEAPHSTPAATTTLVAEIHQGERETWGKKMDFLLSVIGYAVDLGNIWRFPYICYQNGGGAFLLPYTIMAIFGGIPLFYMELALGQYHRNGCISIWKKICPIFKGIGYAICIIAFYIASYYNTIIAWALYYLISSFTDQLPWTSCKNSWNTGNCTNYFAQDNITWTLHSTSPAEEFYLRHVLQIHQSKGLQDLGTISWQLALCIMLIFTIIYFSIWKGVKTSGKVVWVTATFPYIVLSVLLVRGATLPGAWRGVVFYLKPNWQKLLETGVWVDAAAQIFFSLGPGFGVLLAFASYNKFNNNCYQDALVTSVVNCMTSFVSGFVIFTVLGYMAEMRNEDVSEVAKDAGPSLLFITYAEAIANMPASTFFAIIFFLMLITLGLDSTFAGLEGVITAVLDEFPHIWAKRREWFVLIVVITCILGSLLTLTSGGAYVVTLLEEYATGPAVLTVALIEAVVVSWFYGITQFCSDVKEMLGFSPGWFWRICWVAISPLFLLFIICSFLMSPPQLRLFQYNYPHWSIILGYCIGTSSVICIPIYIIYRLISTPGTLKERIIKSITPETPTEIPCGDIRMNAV
Protocol: as §1
as §2, with “Active uptake is defined as that part of the radioactive uptake which is inhibited by a high concentration of cocaine.” left out
as §3

[6] = i.p. half an hour before the animals were killed, midbrain slices, read-out: Inhibition of the uptake in vivo i.p. ED50 NA
[7] = i.p. half an hour before the animals were killed, midbrain slices, read-out: Inhibition of the uptake in vivo i.p. ED50 5-HT
[8] = i.p. half an hour before the animals were killed, midbrain slices
[9] = read-out: Inhibition of the uptake in vivo i.p. ED50 NA, i.p. half an hour before the animals were killed, midbrain slices
[10] = read-out: Inhibition of the uptake in vivo i.p. ED50 5-HT, i.p. half an hour before the animals were killed, midbrain slices
[11] = i.p. half an hour before the animals were killed, midbrain slices, hydrochloride

Compound	ED50 [2, 6]	ED50 [3, 7]	Inhibition of the uptake in vivo i.p. ED50 NA [2, 8]	further results
COc1ccc(C(CC(C)N)c2ccccc2)cc1 (single isomer, unassigned) [CPK 160]	–	–	–	activity on uptake of noradrenaline and 5-hydroxytryptamine (assessment in words) [1]: pronounced non-selective activity
CC(N)/C=C(\c1ccccc1)c1cccc(Br)c1 (stereo not shown) [CPK 215, (E)-3-amino-1-(3-bromophenyl)-1-phenylbutene]	24 µmol/kg	96 µmol/kg	–	–
CC(N)CC(c1ccccc1)c1ccc(Br)cc1 (single isomer, unassigned) [CPK 171, (β)-3-(4-bromophenyl)-1-methyl-3-phenylpropylamine]	–	–	29 µmol/kg	activity on uptake of noradrenaline and 5-hydroxytryptamine (assessment in words) [1]: pronounced non-selective activity; Inhibition of the uptake in vivo i.p. ED50 5-HT [3, 8]: 29 µmol/kg
CC(N)CC(c1ccccc1)c1cccc(Br)c1 (single isomer, unassigned) [CPK 184, (β)-3-(3-bromophenyl)-1-methyl-3-phenylpropylamine]	7.7 µmol/kg	9.9 µmol/kg	–	activity on uptake of noradrenaline and 5-hydroxytryptamine (assessment in words) [1]: pronounced non-selective activity
CC(N)CC(c1ccccc1)c1ccc(C(F)(F)F)cc1 (single isomer, unassigned) [CPK 195, (α)-1-methyl-3-(4-trifluoromethylphenyl)-3-phenylpropylamine maleate]	–	–	–	ED50 [2, 9]: > 98 µmol/kg; ED50 [3, 10]: 98 µmol/kg
CC(N)C=C(c1ccc(F)cc1)c1ccc(F)cc1 (stereo not shown) [FLA 613, 3-amino-1,1-di-(4-fluorphenyl)-1-butene fumarate]	106 µmol/kg	38 µmol/kg	–	–
CC(N)CC(c1ccccc1)c1cccc(Br)c1 (stereo not shown) [CPK 155, 3-(3-bromophenyl)-1-methyl-3-phenylpropylamine]	49 µmol/kg	> 95 µmol/kg	–	–
CNCC=C(c1ccc(Br)cc1)c1cccnc1 [N-methyl-3-(4-bromophenyl)-3-(3-pyridyl)-allylamine E-isomer, N-methyl-3-(4-bromophenyl)-3-(3-pyridyl)-allylamine, reference compound]	–	–	25 µmol/kg	–
COc1ccc(C(CC(C)N)c2ccccc2)cc1 (single isomer, unassigned) [CPK 180, (α)-3-(4-methoxyphenyl)-1-methyl-3-phenylpropylamine]	–	–	–	ED50 [2, 9]: 78 µmol/kg; ED50 [3, 10]: 54 µmol/kg
Cc1cccc(C(=CC(C)N)c2cccc(C)c2)c1 (stereo not shown) [FLA 618, 3-amino-1,1-di-(3-methylphenyl)-1-butene hydrochloride]	56 µmol/kg	93 µmol/kg	–	–
CC(N)C=C(c1ccc(Br)cc1)c1ccc(Br)cc1 (stereo not shown) [FLA 608, 3-amino-1,1-di(4-bromophenyl)-1--butene hydrochloride]	57 µmol/kg	62 µmol/kg	–	–
CC(N)CC(c1ccccc1)c1ccc(Br)cc1 (single isomer, unassigned) [CPK 165, (α)-3-(4-bromophenyl)-1-methyl-3-phenylaropylamine maleate]	–	–	62 µmol/kg	Inhibition of the uptake in vivo i.p. ED50 5-HT [3, 8]: 61 µmol/kg
CC(N)CC(c1ccccc1)c1ccccc1Br (single isomer, unassigned) [CPK 197, (β)-3-(2-bromophenyl)-1-methyl-3--phenyl-propylamine maleate]	–	–	28 µmol/kg	Inhibition of the uptake in vivo i.p. ED50 5-HT [3, 8]: >95 µmol/kg
CN(C)CCCN1c2ccccc2CCc2ccc(Cl)cc21 [Chloroimipramine, reference compound]	–	–	–	IC50 [4]: 900 nM; ED50 [2, 9]: 150 µmol/kg
CC(N)/C=C(/c1ccccc1)c1cccc(Br)c1 (stereo not shown) [CPK 217, (Z)-3-amino-1-(3-bromophenyl)-1-phenylbutene]	35 µmol/kg	118 µmol/kg	–	–
CC(N)/C=C(/c1ccc(Br)cc1)c1cccnc1 (stereo not shown) [CPP 179]	> 89 µmol/kg	89 µmol/kg	–	–
CC(N)CC(c1ccccc1)c1ccccc1Br (single isomer, unassigned) [CPK 185, (α)-3-(2-bromophenyl)-1-methyl-3-phenylpropylamine maleate]	–	–	4.1 µmol/kg	activity on uptake of noradrenaline and 5-hydroxytryptamine (assessment in words) [1]: pronounced selective activity on uptake of noradrenaline; Inhibition of the uptake in vivo i.p. ED50 5-HT [3, 8]: 5.7 µmol/kg
COc1ccc(C(CC(C)N)c2ccc(OC)cc2)cc1 (stereo not shown) [FLA 614, 3,3-di-(4-methoxyphenyl)-1-methyl--propylamine fumarate]	100 µmol/kg	25 µmol/kg	–	–
Cc1cccc(C(CC(C)N)c2cccc(C)c2)c1 (stereo not shown) [FLA 619, 1,3', 3"-trimethyl-3,3-diphenyl-propylamine oxalate]	48 µmol/kg	116 µmol/kg	–	–
CNCC=C(c1ccc(Br)cc1)c1cccnc1 [N-methyl-3-(4-bromophenyl)-3-(3-pyridyl)-allylamine Z-isomer, N-methyl-3-(4-bromophenyl)-3-(3-pyridyl)-allylamine, reference compound]	–	–	>102 µmol/kg	Inhibition of the uptake in vivo i.p. ED50 5-HT [3, 8]: 19 µmol/kg
CC(N)CC(c1ccccc1)c1ccccc1 (stereo not shown) [3,3-diphenyl-1-methylpropylamine fumarate, reference compound]	50 µmol/kg	75 µmol/kg	–	–
COc1ccc(C(=CC(C)N)c2ccc(OC)cc2)cc1.O=C(O)/C=C/C(=O)O (stereo not shown) [FLA 611, 3-amino-1,1-di(4-methoxyphenyl)--1-butene fumarate]	108 µmol/kg	63 µmol/kg	–	activity on uptake of noradrenaline and 5-hydroxytryptamine (assessment in words) [1]: pronounced selective activity on uptake of 5-hydroxytryptamine
CC(N)CC(c1ccccc1)c1ccc(F)cc1 (single isomer, unassigned) [CPK 163, (α)-3-(4-fluorophenyl)-1-methyl-3-phenylpropylamine oxalate]	32 µmol/kg	32 µmol/kg	–	–
CC(N)CC(c1ccccc1)c1ccc(F)cc1 (single isomer, unassigned) [CPK 170, (β)-3-(4-fluorophenyl)-1--methyl-3-phenylpropylamine hydrochloride]	–	–	–	Inhibition of the uptake in vivo i.p. ED50 NA [2, 11]: 34 µmol/kg; activity on uptake of noradrenaline and 5-hydroxytryptamine (assessment in words) [1]: pronounced non-selective activity; Inhibition of the uptake in vivo i.p. ED50 5-HT [3, 11]: 37 µmol/kg
(Z)-3-amino-1-(4-bromophenyl)-1--phenylbutene maleate [CPK 150]	–	–	96 µmol/kg	IC50 [4]: 2000 nM; IC50 [5]: 3000 nM; Inhibition of the uptake in vivo i.p. ED50 5-HT [3, 8]: >96 µmol/kg
COc1ccc(C(CC(C)N)c2ccccc2)cc1 (single isomer, unassigned) [CPK 198, (β)-3-(4-methoxyphenyl)-1-methyl-3-phenylpropylamine]	–	–	52 µmol/kg	activity on uptake of noradrenaline and 5-hydroxytryptamine (assessment in words) [1]: pronounced selective activity on uptake of 5-hydroxytryptamine; Inhibition of the uptake in vivo i.p. ED50 5-HT [3, 8]: 33 µmol/kg
CNC(C)CC(c1ccccc1)c1ccc(Br)cc1 (stereo not shown) [CPK 187, N, 1-dimethyl-3(4-bromophenyl)--3-phenylpropylamine]	> 98 µmol/kg	98 µmol/kg	–	–
CC(N)CC(c1ccccc1)c1ccc(C(F)(F)F)cc1 (single isomer, unassigned) [CPK 199, (β)-1-methyl-3-(4-trifluoromethylphenyl)-3-phenylpropylamine maleate]	–	–	>98 µmol/kg	Inhibition of the uptake in vivo i.p. ED50 5-HT [3, 8]: >98 µmol/kg
CC(N)CC(c1ccc(F)cc1)c1ccc(F)cc1.Cl (stereo not shown) [FLA 615, 3,3-di-(4-fluorophenyl)-1-methylpropylamine hydrochloride]	57 µmol/kg	29 µmol/kg	–	activity on uptake of noradrenaline and 5-hydroxytryptamine (assessment in words) [1]: pronounced selective activity on uptake of 5-hydroxytryptamine
CC(N)/C=C(\c1ccccc1)c1ccc(Br)cc1 (stereo not shown) [CPK 204, (E)-3-amino-1-(4-bromophenyl)-1-phenylbutene oxalate]	48 µmol/kg	40 µmol/kg	–	–
